Measurements as given in BigSolDB 2.1.

COC(=O)c1cc(OC)c2c(c1-c1c(C(=O)OC)cc(OC)c3c1OCO3)OCO2
solubility (mole fraction)
Settings	293.15 K	303.15 K	313.15 K	323.15 K	333.15 K
in acetone	0.00457	0.0068	0.0104	0.0174	–
in acetonitrile	0.00542	0.00808	0.0123	0.0189	–
in ethanol	6.48e-05	0.000114	0.000277	0.000523	0.00102
in ethyl acetate	0.00302	0.0044	0.00659	0.0103	–
in isopropanol	6.44e-05	0.00011	0.000223	0.000484	0.00107
in methanol	7.18e-05	0.000121	0.000275	0.000459	–
in methyl acetate	0.00549	0.00775	0.0124	0.0193	–
in n-butanol	5.71e-05	0.000114	0.000214	0.000511	0.00104
in n-butyl acetate	0.00137	0.00199	0.00318	0.00554	0.00831
in n-pentanol	6.14e-05	0.000114	0.000199	0.000388	0.00104
in n-pentyl acetate	0.0011	0.00154	0.00244	0.00387	0.00649
in n-propanol	5.78e-05	0.000104	0.000211	0.000479	0.00107
in n-propyl acetate	0.00171	0.00279	0.00423	0.00659	0.0117
